Results: US9592234B2, “Methods and compositions for stimulating neurogenesis and inhibiting neuronal degeneration using isothiazolopyrimidinones” (Neuronascent, Inc., priority 2007, dated 2017)

Tests used:
[1] = test system: human neuronal progenitors cells; assay: in vitro neurogenesis test; format: cell-based; conditions: MAP-2 staining on day 11; differentiation media; vehicle 0.2% DMSO in DMEM/F12
Experimental: The in vitro neurogenesis test was performed using human neuronal progenitors cells. By way of background, the human neuronal progenitor cells can be cultured in media and have the potential to produce mature functional neurons. The neurogenesis factor in the culture media can promote the number of the progenitor cells which differentiate into neurons. Indeed, it is a widely accepted in vitro model to test a chemical's neurogenetic property.
Cells were obtained as human neuronal progenitors from a commercial source and were grown for up to three passages or at any time differentiated to potentially produce mature functional neurons in culture. Following two passages to expand the cells, progenitors were seeded into multi-well microplates and the media were changed to differentiation media (minus serum and mitogen). Within 2 hrs of this media change, a vehicle, positive control or test compound were added to each well. Also, they were added with every further media change (50% volume change every other day). Control wells contained cells and vehicle (0.2% DMSO in DMEM/F12). […]
The cells were stained using MAP-2, a neuronal marker, on day 11. Then, each test compound was assessed for the ability to promote an increase in neuron number and compared with the positive control, leukemia inhibitory factor (LIF).

[2] = test system: Human neurons; assay: inhibition of neurodegeneration by hydrogen peroxide (Alamar Blue respiration); format: cell-based; conditions: hydrogen peroxide 50 uM for up to 6 hrs, FIG. 1
Experimental: Dysfunctional neurons were initiated using any of the above agents or using hydrogen peroxide at 1-100 μM concentration. Using a dye that measures metabolic activity of the cells, such as MTT or ALAMARBLUE®, we determined the reduction of respiratory capacity of the cells, which indicated neuron dysfunction. The ability of neurogenic agents to inhibit hydrogen peroxide-induced reduction in cellular respiration was used as a measure of inhibition of neuronal dysfunction, a potential step that lead to degeneration.
Certain compounds were further analyzed to determine their ability to inhibit neurodegeneration by hydrogen peroxide. Human neurons are treated with hydrogen peroxide (50 uM) for up to 6 hrs and then neuronal loss is measured using Alamar Blue respiration.

Compound	Effects of compounds on the increase in the neuron numbers compared with the vehicle control, % of Control [1] [%]	loss of respiration (neuronal loss) when added along with hydrogen peroxide [2]
COc1ccc(-c2nsc3c(=O)n(CCCN4CCOCC4)cnc23)cc1 [3-(4-Methoxyphenyl)-6-[3-(4-morpholinyl)propyl]-isothiazolo[4,5-d]pyrimidin-7-(6H)-one]	115	
CCN1CCCC1Cn1cnc2c(-c3ccc(OC)cc3)nsc2c1=O (stereo not shown) [3-(4-Methoxyphenyl)-6-[(1-ethylpyrrolidin-2-yl)methyl]-isothiazolo[4,5-d]pyrimidin-7(6H)-one]	107	
CCN1CCCC1Cn1cnc2c(-c3ccc(OC)cc3)nsc2c1=O (stereo not shown) [NNI-A, 6-((1-ethylpyrrolidin-2-yl)methyl)-3-(4-methoxyphenyl)isothiazolo[4,5-d]pyrimidin-7(6H)-one]		less loss of respiration
CCN1CCCC1Cn1cnc2c(-c3ccc(F)cc3)nsc2c1=O (stereo not shown) [NNI-B, 6-((1-ethylpyrrolidin-2-yl)methyl)-3-(4-fluorophenyl)isothiazolo[4,5-d]pyrimidin-7(6H)-one]		less loss of respiration
